The results in this text go back to US11135244B2, “Stem cell culture media and methods of enhancing cell survival” (Fate Therapeutics, Inc., priority 2013, dated 2021).

Test [1] concerns CXCR4 surface protein within Lin-CD45lowCD34+7AAD- cells. In words: CXCR4 surface protein on cord blood mononuclear cells after dmPGE2 treatment. In kind it is cell-based. The following applies: 10 μM dmPGE2 two hours at 37° C., then additional one hour incubation without dmPGE2. How it is done:
Cord blood mononuclear cells (All Cells, Emeryville, Calif.) were thawed in a 37° C. water bath and immediately diluted with 10 mL of pre-warmed IMDM with 10% fetal calf serum and 5 uL of DNase (Life Technologies, Grand Island, N.Y.). The cells were split three ways and centrifuged at 300×g for 10 minutes. The cells were resuspended in STEMSPAN-ACF (Media 1), STEMSPAN-ACF with 5% Dextran-40 (Media 2) or STEMSPAN-ACF with 10% Dextran-40 (Media 3). A subset, 1×10^6 cells, from Media 1 were kept at 4° C. and immediately stained with Lineage Mix-FITC, CXCR4-PE, CD34-APC, and CD45-V450 antibodies from BD Biosciences. All 3 media conditions were split into a vehicle-treated cohort and a 10 μM dmPGE2-treated cohort and incubated at 37° C. for 2 hours. The cells were washed with the same media and incubated at 37° C. for an additional 1 hour. Each cohort was stained with the same antibodies as indicated above. Levels of CXCR4 surface protein within the Lin-CD45^lowCD34+7AAD-cells were analyzed.

The subject of test [2] is CXCR4 gene expression. Nature of the test: CXCR4 gene expression after incubation with dmPGE2. In kind it is cell-based. The following applies: 10 μM dmPGE2 for two hours at 37° C.

For the compound `CCCCC(C)(C)[C@H](O)/C=C/[C@H]1[C@H](O)CC(=O)[C@@H]1C/C=C\CCCC(=O)O` [dmPGE2, 16,16-dimethyl PGE2], the CXCR4 surface protein entry in test [1] was “increased”. Further, the CXCR4 gene expression result in test [2] was “increased”.
